Assay results from patent publication US4806554A, “Pyrazol and indazolpyridinamines” (Hoechst-Roussel Pharmaceuticals, Inc., priority 1988, dated 1989).
Like-named read-outs stand apart in the source and are kept apart here.

Key:
[1] = test system: tetrabenazine-induced ptosis in mice; experiment: Prevention of tetrabenazine-induced ptosis in mice (antidepressant activity); type: in vivo; conditions: Mus musculus, po, read-out: ED50 (antidepressant activity)
Excerpt: The test method and results are described below.
PREVENTION OF TETRABENAZINE-INDUCED PTOSIS IN MICE
Tetrabenazine (TBZ) induces behavioral depression with concomitant ptosis in mice similar to reserpine. Antidepressant compounds, both monoamineoxidase inhibitors and tricyclics, are known to prevent or antagonize these effects and the degree of antagonism correlates with clinical efficacy. The prevention of TBZ-induced ptosis in mice is used as a preliminary screen for possible antidepressant activity. The method used in this invention is as follows:
Male mice weighing 20 to 30 grams are used in test groups of five subjects. All compounds are dissolved or suspended with a suitable surfactant in distilled water and administered in volumes of 10 ml/kg of body weight. TBZ solution is made from the methanesulfonate salt and the concentration is adjusted to enable administration of 60 mg/kg of base by intraperitoneal (i.p.) injection.
The pretreatment time is measured from the time of dosing to observation. Therefore, when a 30-minute pretreat is utilized, drug and TBZ are given simultaneously. A control group received solvent and TBZ at intervals identical to drug group. For a primary screen, the drug is administered i.p. and a group size of five is utilized. Eight animals/group are used for a dose range.
The total score for each group of five in a primary screen will, therefore, be from 0 to 20 and these scores are used as indications of drug activity.
The vehicle control group score is used as a determinant of the validity of each test. […] The calculation of percent inhibition of ptosis is: [formula]

[2] = test system: sensitivity of mice to pressure stress (artery clip on tail); experiment: Modified Haffner's analgesia (artery clip on tail); type: in vivo, mice (Charles River; conditions: Mus musculus, sc; at peak time of drug activity; male CD-1 mice
Excerpt: The latter assay is used to evaluate analgesic activity by measuring drug-induced changes in the sensitivity of mice to pressure stress by placing an artery clip (21/2 inches long) on their tail. The procedure used is a modification of the test developed by Haffner, Dtsch. Med. Wschr. 55, 731 (1929), and it is described below:
Male mice (Charles River, CD-1) from 18-30 grams are used for the test. An artery clip is applied to the root of the tail of a mouse (approximately 1/2 inch from the body) to induce pain. The animals quickly responds to this noxious stimuli by biting the clip or the location of the clip. This reaction time, the interval between stimulus onset and response, is recorded on 1/10 second increments by a stop watch.
For a time response, the screening dose (25 mg/kg) is administered subcutaneously (10 ml/kg) to the animal receiving food and water ad libitum before testing. […]
The cut-off time (CO) is determined by taking the (x) average +3 standard (SD) deviation of the combined response latencies of the control mice in all time periods.
Any reaction time, in subsequent drug tests, which is greater than the CO (for the same time period) therefore exceeds 99% of normal Gaussian distribution and is called "positive response" indicative of analgesic activity. […] The ED50 is determined at the peak time of drug activity. […] ED50 's are calculated using computer analysis.

[3] = test system: 2-phenyl-1,4-benzoquinone-induced writhing in mice; experiment: 2-phenyl-1,4-benzoquinone-induced writhing (PQW) test in mice (analgesia); type: in vivo; conditions: s.c.
Excerpt: Compounds I of the present invention are also useful as analgesic agents due to their ability to alleviate pain in mammals. […] Exptl. Biol. Med., 95, 729(1957)] and in modified Haffner's analgesia.

SMILES: CNCCCN1c2ccccc2CCc2ccccc21 [Desipramine, reference compound]
- ED50 [1]: 2.3 mg/kg

SMILES: O=C(O)/C=C\C(=O)O.c1ccc2c(c1)cnn2Nc1ccncc1 [N-(4-Pyridinyl)-1H-indazol-1-amine maleate]
- ED50 [2]: 10.4 mg/kg
- PQW (% Inhibition of writhing) ([3]; at 0.7 mg/kg): 50%
- ED50 ([1]; TBZ 60 mg/kg i.p., male mice): 2.7 mg/kg

SMILES: CCCN(c1ccncc1)n1ncc2ccccc21.O=C(O)/C=C\C(=O)O [N-(Propyl)-N-(4-pyridinyl)-1H-indazol-1-amine maleate]
- PQW (% Inhibition of writhing) ([3]; at 20 mg/kg): 62%
- ED50 ([1]; TBZ 60 mg/kg i.p., male mice): 8.5 mg/kg

SMILES: CC(C)=CCN1CCC2(C)c3cc(O)ccc3CC1C2C (centres unmarked) [Pentazocin, reference compound]
- ED50 [2]: 3.9 mg/kg
- PQW (% Inhibition of writhing) ([3]; at 1.3 mg/kg): 50%
